How the values were obtained:
[1] = Assay for plasma protein binding rate (equilibrium dialysis), mouse plasma; format: in vitro ADME; settings: dialysis 6 h at 37 °C, read-out: Mouse (Fu%)
Experimental: (§1) 1.1 Preparation of compounds: The compounds prepared in the examples were each dissolved in dimethylsulfoxide to give solutions at a concentration of 10 mmol/L. • 1) The example compounds were each diluted from 10 mmol/L stock solution to 0.2 mmol/L, i.e., 1 µL of the compound was added to 49 µL of DMSO; • 2) 3 µL of 0.2 mmol/L test compounds were added to 597 µL of blood plasma, and the mixtures were vortexed at 1000 rpm for 2 min; • 3) 50 µL of the plasma containing the drug in 2) was taken, 50 µL of PBS was added, and 300 µL of methanol internal standard* was added to serve as a sample T0; • 4) 120 µL of the plasma containing the drug in 2) was taken and added to one side of an HTD device membrane, and 120 µL of PBS was added to the other side of the membrane; a breathable film was covered, and the plasma and the residual sample in 2) were balanced at 37 °C (100 rpm and 5% CO2) for 6 h; • 5) 50 µL of the dialyzed plasma side sample was taken, 50 µL of PBS was added, and 300 µL of methanol internal standard* was added to serve as a sample P; • 6) 50 µL of the dialyzed PBS side sample was taken, 50 µL of blank plasma was added, and 300 µL of methanol internal standard* was added to serve as a sample B; • 7) 50 µL of the plasma containing the drug in 2) was taken, 50 µL of PBS was added, and 300 µL of methanol internal standard* was added to serve as a sample T6; • 8) All samples were vortexed, mixed homogeneously, and then centrifuged at 3220 g for 40 min at 4 °C; • 9) 100 µL of the supernatant and 100 µL of purified water were mixed homogenously for liquid chromatography-mass spectrometry.
(§2) An internal standard method was used, and the plasma protein binding rate, recovery rate, and residual percentage were calculated by using Excel according to the ratio of the peak area of the sample to the peak area of the internal standard. Free rate(%) = (RatioB)/(RatioP) × 100% [formula] Binding rate(%) = 100%−Free rate% [formula] Recovery rate(%) = (RatioB + RatioP)/(RatioT0) × 100% [formula] Remaining percentage(%) = (RatioT6)/(RatioT0) × 100% [formula]
(§3) RatioB: a ratio of the peak area of the test substance on the PBS side to the peak area of the internal standard; RatioP: a ratio of the peak area of the test substance on the plasma side to the peak area of the internal standard; RatioT6: a ratio of the peak area of the sample after incubation with the test substance for 6 h to the peak area of the internal standard; RatioT0: a ratio of the peak area of the sample after incubation with the test substance for 0 h to the peak area of the internal standard. Table 8. Plasma protein binding rate (Fu%) data for various species of example compounds

KAT6A = target: T1, KAT6A (Homo sapiens, UniProt Q92794); assay: Enzymatic activity assay for KAT6A acetyltransferase (TR-FRET, acetylation of histone substrate H3); format: biochemical
T1 construct: purchased active motife (Active Motif) 81223
T1 sequence (Q92794 whole entry): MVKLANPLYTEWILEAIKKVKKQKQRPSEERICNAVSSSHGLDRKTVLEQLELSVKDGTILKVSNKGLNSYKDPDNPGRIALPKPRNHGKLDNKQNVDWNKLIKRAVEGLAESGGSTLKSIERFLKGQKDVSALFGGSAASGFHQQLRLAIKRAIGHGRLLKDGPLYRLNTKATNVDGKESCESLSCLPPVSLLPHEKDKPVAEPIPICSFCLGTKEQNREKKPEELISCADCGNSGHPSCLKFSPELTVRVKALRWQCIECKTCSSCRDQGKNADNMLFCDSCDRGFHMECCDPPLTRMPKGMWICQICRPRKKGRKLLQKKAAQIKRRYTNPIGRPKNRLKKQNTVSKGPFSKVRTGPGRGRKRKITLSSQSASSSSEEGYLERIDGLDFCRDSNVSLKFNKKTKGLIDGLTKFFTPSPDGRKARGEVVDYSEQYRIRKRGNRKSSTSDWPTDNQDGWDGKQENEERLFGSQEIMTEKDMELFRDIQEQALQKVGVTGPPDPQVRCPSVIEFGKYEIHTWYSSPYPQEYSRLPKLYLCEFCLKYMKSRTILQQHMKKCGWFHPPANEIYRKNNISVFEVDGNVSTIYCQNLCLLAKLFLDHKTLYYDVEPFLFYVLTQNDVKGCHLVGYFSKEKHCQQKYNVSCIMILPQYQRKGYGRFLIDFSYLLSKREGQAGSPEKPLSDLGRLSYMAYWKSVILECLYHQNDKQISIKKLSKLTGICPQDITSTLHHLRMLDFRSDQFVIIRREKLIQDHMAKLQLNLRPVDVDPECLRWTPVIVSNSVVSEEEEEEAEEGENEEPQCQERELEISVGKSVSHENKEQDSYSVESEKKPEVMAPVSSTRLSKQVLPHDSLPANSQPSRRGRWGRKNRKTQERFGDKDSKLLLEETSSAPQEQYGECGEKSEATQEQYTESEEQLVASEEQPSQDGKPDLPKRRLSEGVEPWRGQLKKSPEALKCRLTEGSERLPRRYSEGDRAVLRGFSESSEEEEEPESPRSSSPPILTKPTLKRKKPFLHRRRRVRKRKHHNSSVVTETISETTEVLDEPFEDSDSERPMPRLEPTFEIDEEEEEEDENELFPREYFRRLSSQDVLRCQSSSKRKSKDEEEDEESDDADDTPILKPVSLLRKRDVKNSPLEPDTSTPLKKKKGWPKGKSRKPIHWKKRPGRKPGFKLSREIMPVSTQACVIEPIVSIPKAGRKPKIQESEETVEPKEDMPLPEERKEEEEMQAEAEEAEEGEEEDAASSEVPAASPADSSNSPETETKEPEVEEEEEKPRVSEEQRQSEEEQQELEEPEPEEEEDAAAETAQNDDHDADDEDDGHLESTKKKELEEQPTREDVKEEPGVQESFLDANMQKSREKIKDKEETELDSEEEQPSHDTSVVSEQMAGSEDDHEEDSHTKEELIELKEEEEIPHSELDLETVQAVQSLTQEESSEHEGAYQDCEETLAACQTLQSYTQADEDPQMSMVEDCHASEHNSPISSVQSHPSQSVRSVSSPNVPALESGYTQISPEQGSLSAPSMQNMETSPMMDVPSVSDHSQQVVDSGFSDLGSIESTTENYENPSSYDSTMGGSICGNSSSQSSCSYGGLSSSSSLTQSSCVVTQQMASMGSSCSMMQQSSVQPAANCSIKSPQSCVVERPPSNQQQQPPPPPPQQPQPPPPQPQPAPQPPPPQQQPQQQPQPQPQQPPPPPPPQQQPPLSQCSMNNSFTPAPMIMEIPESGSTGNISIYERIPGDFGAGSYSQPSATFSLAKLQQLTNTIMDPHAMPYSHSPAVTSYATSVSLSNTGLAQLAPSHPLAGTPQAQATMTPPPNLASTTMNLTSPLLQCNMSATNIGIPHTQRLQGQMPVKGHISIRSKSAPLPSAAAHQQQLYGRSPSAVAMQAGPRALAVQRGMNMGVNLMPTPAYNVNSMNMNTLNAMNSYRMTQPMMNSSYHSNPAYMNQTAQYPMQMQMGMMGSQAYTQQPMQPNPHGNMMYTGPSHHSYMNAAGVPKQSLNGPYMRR
Method in brief: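 TR-FRET detection of biotinylated H3 acetylation by KAT6A with acetyl-CoA; compounds in 10-point 3-fold dilution (0.5% DMSO final) preincubated with enzyme 10 min at 25 °C, then 90 min reaction and 60 min Eu-antibody/ULight-SA detection at 25 °C. HTRF 665/615 ratio normalised to DMSO (0%) and top-dose control (100%); IC50 by nonlinear fit.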

[2] = Assay for plasma protein binding rate (equilibrium dialysis), rat plasma; format: in vitro ADME; settings: dialysis 6 h at 37 °C, read-out: Rat (Fu%)
Experimental: as §1, §2, §3

[3] = Assay for plasma protein binding rate (equilibrium dialysis), human plasma; format: in vitro ADME; settings: dialysis 6 h at 37 °C, read-out: Human (Fu%)
Experimental: as §1, §2, §3

[4] = Assay for plasma protein binding rate (equilibrium dialysis), dog plasma; format: in vitro ADME; settings: dialysis 6 h at 37 °C, read-out: Dog (Fu%)
Experimental: as §1, §2, §3

[5] = In-vivo pharmacokinetic study in rats; design: species or system SD female rats; settings: female, SD, rat, plasma, po, intragastric administration, 5 mg/kg; for AUC(0-t): read-out: AUC0-24h
Experimental: 1.1 Instrument: high-performance liquid chromatograph: SHIMADZU LC-30AD; mass spectrum: AB SCIEX mass spectrometer Triple Quad 5500; all measured data were calculated and processed using Microsoft Excel, and relevant pharmacokinetic parameters were calculated using WinNonlin software. The main obtained kinetic parameters are Tmax, T1/2, Cmax, AUC0-24 h, and AUCinf. […] Sample injection amount: 1 µL.
1.2 Animals: three SD female rats were used. The body weight range was 180-300 g. After purchase, the rats were bred in the experimental animal center for two days for later use. The rats were fasted 12 h before administration and 4 h after administration, and given ad libitum access to water during the assay. Blood samples were taken at predetermined time points after intragastric administration.
1.3 Vehicle: 0.5% HPMC (hydroxypropyl methylcellulose) + 0.4% Tween80 + 99.1% water. Preparation of intragastric administration solution: The compound was precisely weighed, the vehicle was added, and then the drug was completely dissolved by ultrasonication at room temperature for 5 min and prepared into a 0.5 mg/mL solution. After the intragastric administration, blood samples were taken at 0.083 h, 0.25 h, 0.5 h, 1.0 h, 2.0 h, 4.0 h, 7.0 h, and 24 h. The blood collection mode is as follows: 0.2 mL of the jugular vein blood was collected, EDTA-K2 was used as an anticoagulation agent, the collected blood sample was transferred into a microcentrifuge tube containing the anticoagulation agent, and the tube was centrifuged at 4 °C and 4000 g for 5 min to separate the plasma. All plasma samples collected were stored at -75±15 °C until analysis.
The compound was precisely weighed and prepared into a standard curve working solution and a quality control working solution at different concentrations. The blank plasma was added and prepared into a plasma standard curve and a quality control sample. LC/MS/MS analysis was performed after pretreatment using a protein precipitation method, and then the concentration of the compounds described above in the plasma was measured. All measured data were collected and processed by the relevant software, and pharmacokinetic parameters were calculated using Winnonlin software. Table 9. Pharmacokinetic parameters of some compounds in the examples in rats

Compound	fraction unbound at 6 h, 1 µM [1]	IC50 (KAT6A)	fraction unbound at 6 h, 1 µM [2]	fraction unbound at 6 h, 1 µM [3]	fraction unbound at 6 h, 1 µM [4]	AUC(0-inf) [5]	Cmax [5]	Tmax [5]	AUC(0-t) [5]
COc1cc2ccoc2cc1S(=O)(=O)Nc1noc2cc(Cn3cccn3)nc(OC)c12 [Example 44, N-(6-((1H-Pyrazol-1-yl)methyl)-4-methoxyisoxazolo[4,5-c]pyridin-3-yl)-5-methoxybenzofuran-6-sulfonamide]	0.048	8.28 nM	0.0176	0.0149	0.0023	–	–	–	–
COc1cc2c(cc1S(=O)(=O)Nc1noc3cc(Cn4cccn4)nc(OC)c13)OCO2 [Example 57, N-(6-((1H-Pyrazol-1-yl)methyl)-4-methoxyisoxazolo[4,5-c]pyridin-3-yl)-6-methoxy-1,3-benzodioxole-5-sulfonamide]	0.0565	0.95 nM	–	0.0264	–	–	–	–	–
COc1cc2c(cc1S(=O)(=O)Nc1noc3cc(Cn4cccn4)nc(OC)c13)CCO2 [Example 60, N-(6-((1H-Pyrazol-1-yl)methyl)-4-methoxyisoxazolo[4,5-c]pyridin-3-yl)-6-methoxy-2,3-dihvdrobenzofuran-5-sulfonamide]	0.0358	1.01 nM	0.0516	0.0175	0.0345	26700 ng·h/mL	2310 ng/mL	2.67 h	26200 ng·h/mL
COc1cc2cccnc2cc1S(=O)(=O)Nc1noc2cc(Cn3cccn3)nc(OC)c12 [Example 75, N-(6-((1H-Pyrazol-1-yl)methyl)-4-methoxyisoxazolo[4,5-c]pyridin-3-yl)-6-methoxyquinoline-7-sulfonamide]	0.0163	2.41 nM	–	0.0091	–	30600 ng·h/mL	10800 ng/mL	0.25 h	30600 ng·h/mL
